Residues, ends and D or L forms follow the SMILES beside them.
molecular target: T1, human GLP-1-R (Homo sapiens, UniProt P43220); assay: GLP-1 receptor efficacy assay (cAMP generation in HEK293 cells); type: cell-based; conditions: cAMP generation in HEK293 cells expressing GLP-1 receptor
T1 construct: The DNA encoding the Glucagon-R or the GLP-1-R was amplified by PCR using primers encoding terminal restriction sites for subcloning; expressed in transfected cells
Source text: (§1) The DNA encoding the Glucagon-R or the GLP-1-R was amplified by PCR using primers encoding terminal restriction sites for subcloning. The 5′-end primers additionally encoded a near Kozak consensus sequence to ensure efficient translation. The fidelity of the DNA encoding the Glucagon-R and the GLP-1-R was confirmed by DNA sequencing. The PCR products encoding the Glucagon-R or the GLP-1-R were subcloned into a mammalian expression vector containing a neomycin (G418) resistance marker. The mammalian expression vectors encoding the Glucagon-R or the GLP-1-R were transfected into HEK293 cells by a standard calcium phosphate transfection method. 48 hr after transfection cells were seeded for limited dilution cloning and selected with 1 mg/ml G418 in the culture medium. Three weeks later 12 surviving colonies of Glucagon-R and GLP-1-R expressing cells were picked, propagated and tested in the Glucagon-R and GLP-1-R efficacy assays as described below. One Glucagon-R expressing clone and one GLP-1-R expressing clone were chosen for compound profiling.
(§2) On the day of analysis, growth medium was removed and the cells washed once with 200 μl Tyrode buffer. Cells were incubated in 100 μl Tyrode buffer containing increasing concentrations of test peptides, 100 μM IBMX, and 6 mM glucose for up 15 min at 37° C. The reaction was stopped by addition of 25 μl 0.5 M HCl and incubated on ice for 60 min. The cAMP content was estimated using the FlashPlate® cAMP kit from Perkin-Elmer according to manufacturer instructions. EC50 and relative efficacies compared to reference compounds (glucagon and GLP-1) were estimated by computer aided curve fitting.

T1 sequence (P43220 24-463): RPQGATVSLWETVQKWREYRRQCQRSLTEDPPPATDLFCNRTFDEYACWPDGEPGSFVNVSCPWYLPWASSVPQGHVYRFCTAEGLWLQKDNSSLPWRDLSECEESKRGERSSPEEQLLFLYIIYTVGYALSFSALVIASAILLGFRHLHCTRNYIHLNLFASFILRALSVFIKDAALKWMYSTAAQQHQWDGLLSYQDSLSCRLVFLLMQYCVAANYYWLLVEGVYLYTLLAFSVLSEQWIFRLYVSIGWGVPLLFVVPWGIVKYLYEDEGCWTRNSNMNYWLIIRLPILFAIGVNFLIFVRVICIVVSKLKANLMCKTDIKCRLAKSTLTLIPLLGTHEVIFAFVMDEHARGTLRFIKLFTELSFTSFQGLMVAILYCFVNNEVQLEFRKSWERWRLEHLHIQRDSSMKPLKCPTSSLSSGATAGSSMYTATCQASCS

In order of falling EC50:
1. CCCCCCCCCCCCCCCC(=O)N[C@@H](CCC(=O)NCCCC[C@H](NC(=O)[C@H](CC(=O)O)NC(=O)[C@H](CC(C)C)NC(=O)[C@H](Cc1ccc(O)cc1)NC(=O)[C@H](CCCCN)NC(=O)[C@H](CO)NC(=O)[C@H](Cc1ccc(O)cc1)NC(=O)[C@H](CC(=O)O)NC(=O)[C@H](CO)NC(=O)[C@@H](NC(=O)[C@H](Cc1ccccc1)NC(=O)[C@@H](NC(=O)CNC(=O)[C@H](CCC(N)=O)NC(=O)C(C)(C)NC(=O)[C@@H](N)Cc1c[nH]cn1)[C@@H](C)O)[C@@H](C)O)C(=O)N[C@@H](CCCNC(=N)N)C(=O)N[C@@H](CCCNC(=N)N)C(=O)N[C@@H](C)C(=O)N[C@@H](CCCCN)C(=O)N[C@@H](CC(=O)O)C(=O)N[C@@H](Cc1ccccc1)C(=O)N[C@H](C(=O)N[C@@H](CCC(=O)O)C(=O)N[C@@H](Cc1c[nH]c2ccccc12)C(=O)N[C@@H](CC(C)C)C(=O)N[C@@H](CC(C)C)C(=O)N[C@@H](CO)C(=O)N[C@@H](C)C(N)=O)[C@@H](C)CC)C(=O)O [Compound 1] (HELM PEPTIDE1{H.[Aib].Q.G.T.F.T.S.D.Y.S.K.Y.L.D.K.R.R.A.K.D.F.I.E.W.L.L.S.A.[am]}|PEPTIDE2{[CCCCCCCCCCCCCCCC(=O)[*:2]].[gGlu]}$PEPTIDE1,PEPTIDE2,16:R3-2:R2$$$V2.0)  120 pM
2. CCCCCCCCCCCCCCCC(=O)N[C@@H](CCC(=O)NCCCC[C@H](NC(=O)[C@H](CCC(=O)O)NC(=O)[C@H](CC(=O)O)NC(=O)[C@H](CC(C)C)NC(=O)[C@H](Cc1ccc(O)cc1)NC(=O)[C@H](CCCNC(=N)N)NC(=O)[C@H](CO)NC(=O)[C@H](Cc1ccc(O)cc1)NC(=O)[C@H](CC(=O)O)NC(=O)[C@H](CO)NC(=O)[C@@H](NC(=O)[C@H](Cc1ccccc1)NC(=O)[C@@H](NC(=O)CNC(=O)[C@@H]1CCCN1C(=O)[C@@H](CO)NC(=O)[C@@H](N)Cc1c[nH]cn1)[C@@H](C)O)[C@@H](C)O)C(=O)N[C@@H](CCCNC(=N)N)C(=O)N[C@@H](C)C(=O)N[C@@H](CCCNC(=N)N)C(=O)N[C@@H](CC(=O)O)C(=O)N[C@@H](Cc1ccccc1)C(=O)N[C@H](C(=O)N[C@@H](CCC(=O)O)C(=O)N[C@@H](Cc1c[nH]c2ccccc12)C(=O)N[C@@H](CC(C)C)C(=O)N[C@@H](CC(C)C)C(=O)N[C@@H](CO)C(=O)N[C@@H](C)C(N)=O)[C@@H](C)CC)C(=O)O [Compound 14] (HELM PEPTIDE1{H.[dS].P.G.T.F.T.S.D.Y.S.R.Y.L.D.E.K.R.A.R.D.F.I.E.W.L.L.S.A.[am]}|PEPTIDE2{[CCCCCCCCCCCCCCCC(=O)[*:2]].[gGlu]}$PEPTIDE1,PEPTIDE2,17:R3-2:R2$$$V2.0)  120 pM
3. CCCCCCCCCCCCCCCC(=O)N[C@@H](CCC(=O)NCCCC[C@H](NC(=O)[C@H](CCC(=O)O)NC(=O)[C@H](CC(=O)O)NC(=O)[C@H](CC(C)C)NC(=O)[C@H](Cc1ccc(O)cc1)NC(=O)[C@H](CCCCN)NC(=O)[C@H](CO)NC(=O)[C@H](Cc1ccc(O)cc1)NC(=O)[C@H](CC(=O)O)NC(=O)[C@H](CO)NC(=O)[C@@H](NC(=O)[C@H](Cc1ccccc1)NC(=O)[C@@H](NC(=O)CNC(=O)[C@H](CCC(N)=O)NC(=O)[C@@H](CO)NC(=O)[C@@H](N)Cc1c[nH]cn1)[C@@H](C)O)[C@@H](C)O)C(=O)N[C@@H](CCCNC(=N)N)C(=O)N[C@@H](C)C(=O)N[C@@H](CCCCN)C(=O)N[C@@H](CC(=O)O)C(=O)N[C@@H](Cc1ccccc1)C(=O)N[C@H](C(=O)N[C@@H](CCC(=O)O)C(=O)N[C@@H](Cc1c[nH]c2ccccc12)C(=O)N[C@@H](CC(C)C)C(=O)N[C@@H](CC(C)C)C(=O)N[C@@H](CO)C(=O)N[C@@H](C)C(N)=O)[C@@H](C)CC)C(=O)O [Compound 17] (HELM PEPTIDE1{H.[dS].Q.G.T.F.T.S.D.Y.S.K.Y.L.D.E.K.R.A.K.D.F.I.E.W.L.L.S.A.[am]}|PEPTIDE2{[CCCCCCCCCCCCCCCC(=O)[*:2]].[gGlu]}$PEPTIDE1,PEPTIDE2,17:R3-2:R2$$$V2.0)  70 pM
4. CCCCCCCCCCCCCCCC(=O)N[C@@H](CCC(=O)NCCCC[C@H](NC(=O)[C@H](CCC(=O)O)NC(=O)[C@H](CC(=O)O)NC(=O)[C@H](CC(C)C)NC(=O)[C@H](Cc1ccc(O)cc1)NC(=O)[C@H](CCCNC(=N)N)NC(=O)[C@H](CO)NC(=O)[C@H](Cc1ccc(O)cc1)NC(=O)[C@H](CC(=O)O)NC(=O)[C@H](CO)NC(=O)[C@@H](NC(=O)[C@H](Cc1ccccc1)NC(=O)[C@@H](NC(=O)CNC(=O)[C@H](Cc1c[nH]cn1)NC(=O)C(C)(C)NC(=O)[C@@H](N)Cc1c[nH]cn1)[C@@H](C)O)[C@@H](C)O)C(=O)N[C@@H](CCCNC(=N)N)C(=O)N[C@@H](C)C(=O)N[C@@H](CCCNC(=N)N)C(=O)N[C@@H](CC(=O)O)C(=O)N[C@@H](Cc1ccccc1)C(=O)N[C@H](C(=O)N[C@@H](CCC(=O)O)C(=O)N[C@@H](Cc1c[nH]c2ccccc12)C(=O)N[C@@H](CC(C)C)C(=O)N[C@@H](CC(C)C)C(=O)N[C@@H](CO)C(=O)N[C@@H](C)C(N)=O)[C@@H](C)CC)C(=O)O [Compound 12] (HELM PEPTIDE1{H.[Aib].H.G.T.F.T.S.D.Y.S.R.Y.L.D.E.K.R.A.R.D.F.I.E.W.L.L.S.A.[am]}|PEPTIDE2{[CCCCCCCCCCCCCCCC(=O)[*:2]].[gGlu]}$PEPTIDE1,PEPTIDE2,17:R3-2:R2$$$V2.0)  60 pM
5. CCCCCCCCCCCCCCCC(=O)N[C@@H](CCC(=O)NCCCC[C@H](NC(=O)[C@H](CCC(=O)O)NC(=O)[C@H](CC(=O)O)NC(=O)[C@H](CC(C)C)NC(=O)[C@H](Cc1ccc(O)cc1)NC(=O)[C@H](CCCNC(=N)N)NC(=O)[C@H](CO)NC(=O)[C@H](Cc1ccc(O)cc1)NC(=O)[C@H](CC(=O)O)NC(=O)[C@H](CO)NC(=O)[C@@H](NC(=O)[C@H](Cc1ccccc1)NC(=O)[C@@H](NC(=O)CNC(=O)[C@@H]1CCCN1C(=O)C(C)(C)NC(=O)[C@@H](N)Cc1c[nH]cn1)[C@@H](C)O)[C@@H](C)O)C(=O)N[C@@H](CCCNC(=N)N)C(=O)N[C@@H](C)C(=O)N[C@@H](CCCNC(=N)N)C(=O)N[C@@H](CC(=O)O)C(=O)N[C@@H](Cc1ccccc1)C(=O)N[C@H](C(=O)N[C@@H](CCC(=O)O)C(=O)N[C@@H](Cc1c[nH]c2ccccc12)C(=O)N[C@@H](CC(C)C)C(=O)N[C@@H](CC(C)C)C(=O)N[C@@H](CO)C(=O)N[C@@H](C)C(N)=O)[C@@H](C)CC)C(=O)O [Compound 15] (HELM PEPTIDE1{H.[Aib].P.G.T.F.T.S.D.Y.S.R.Y.L.D.E.K.R.A.R.D.F.I.E.W.L.L.S.A.[am]}|PEPTIDE2{[CCCCCCCCCCCCCCCC(=O)[*:2]].[gGlu]}$PEPTIDE1,PEPTIDE2,17:R3-2:R2$$$V2.0)  60 pM
6. CCCCCCCCCCCCCCCC(=O)N[C@@H](CCC(=O)NCCCC[C@H](NC(=O)[C@H](CCC(=O)O)NC(=O)[C@H](CC(=O)O)NC(=O)[C@H](CC(C)C)NC(=O)[C@H](Cc1ccc(O)cc1)NC(=O)[C@H](CCCNC(=N)N)NC(=O)[C@H](CO)NC(=O)[C@H](Cc1ccc(O)cc1)NC(=O)[C@H](CC(=O)O)NC(=O)[C@H](CO)NC(=O)[C@@H](NC(=O)[C@H](Cc1ccccc1)NC(=O)[C@@H](NC(=O)CNC(=O)[C@H](CCC(N)=O)NC(=O)C(C)(C)NC(=O)[C@@H](N)Cc1c[nH]cn1)[C@@H](C)O)[C@@H](C)O)C(=O)N[C@@H](CCCNC(=N)N)C(=O)N[C@@H](C)C(=O)N[C@@H](CCCCN)C(=O)N[C@@H](CC(=O)O)C(=O)N[C@@H](Cc1ccccc1)C(=O)N[C@H](C(=O)N[C@@H](CCC(=O)O)C(=O)N[C@@H](Cc1c[nH]c2ccccc12)C(=O)N[C@@H](CC(C)C)C(=O)N[C@@H](CC(C)C)C(=O)N[C@@H](CO)C(=O)N[C@@H](C)C(N)=O)[C@@H](C)CC)C(=O)O [Compound 16] (HELM PEPTIDE1{H.[Aib].Q.G.T.F.T.S.D.Y.S.R.Y.L.D.E.K.R.A.K.D.F.I.E.W.L.L.S.A.[am]}|PEPTIDE2{[CCCCCCCCCCCCCCCC(=O)[*:2]].[gGlu]}$PEPTIDE1,PEPTIDE2,17:R3-2:R2$$$V2.0)  60 pM

molecular target: T2, human Glucagon-R (Homo sapiens, UniProt P47871); assay: Glucagon receptor efficacy assay (cAMP generation in HEK293 cells); type: cell-based; conditions: cAMP generation in HEK293 cells expressing Glucagon receptor
T2 construct: The DNA encoding the Glucagon-R or the GLP-1-R was amplified by PCR using primers encoding terminal restriction sites for subcloning; expressed in transfected cells
T2 sequence (P47871 26-477): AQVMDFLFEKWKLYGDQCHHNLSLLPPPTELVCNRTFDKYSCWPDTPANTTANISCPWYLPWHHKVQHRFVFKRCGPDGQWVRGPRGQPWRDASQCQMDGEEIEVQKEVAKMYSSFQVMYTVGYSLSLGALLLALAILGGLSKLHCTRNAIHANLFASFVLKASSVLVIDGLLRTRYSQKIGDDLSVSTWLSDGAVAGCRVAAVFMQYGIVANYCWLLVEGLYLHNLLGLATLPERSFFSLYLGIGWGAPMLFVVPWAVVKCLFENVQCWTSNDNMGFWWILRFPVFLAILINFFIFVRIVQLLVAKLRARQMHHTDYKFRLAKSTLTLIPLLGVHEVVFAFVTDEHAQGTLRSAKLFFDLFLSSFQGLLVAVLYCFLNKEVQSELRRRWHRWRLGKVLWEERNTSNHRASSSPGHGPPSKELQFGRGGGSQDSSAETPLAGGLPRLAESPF
Source text: as §1, §2

CCCCCCCCCCCCCCCC(=O)N[C@@H](CCC(=O)NCCCC[C@H](NC(=O)[C@H](CCC(=O)O)NC(=O)[C@H](CC(=O)O)NC(=O)[C@H](CC(C)C)NC(=O)[C@H](Cc1ccc(O)cc1)NC(=O)[C@H](CCCNC(=N)N)NC(=O)[C@H](CO)NC(=O)[C@H](Cc1ccc(O)cc1)NC(=O)[C@H](CC(=O)O)NC(=O)[C@H](CO)NC(=O)[C@@H](NC(=O)[C@H](Cc1ccccc1)NC(=O)[C@@H](NC(=O)CNC(=O)[C@H](Cc1c[nH]cn1)NC(=O)[C@H](CO)NC(=O)[C@@H](N)Cc1c[nH]cn1)[C@@H](C)O)[C@@H](C)O)C(=O)N[C@@H](CCCNC(=N)N)C(=O)N[C@@H](C)C(=O)N[C@@H](CCCNC(=N)N)C(=O)N[C@@H](CC(=O)O)C(=O)N[C@@H](Cc1ccccc1)C(=O)N[C@H](C(=O)N[C@@H](CCC(=O)O)C(=O)N[C@@H](Cc1c[nH]c2ccccc12)C(=O)N[C@@H](CC(C)C)C(=O)N[C@@H](CC(C)C)C(=O)N[C@@H](CO)C(=O)N[C@@H](C)C(N)=O)[C@@H](C)CC)C(=O)O [Compound 10] (HELM PEPTIDE1{H.S.H.G.T.F.T.S.D.Y.S.R.Y.L.D.E.K.R.A.R.D.F.I.E.W.L.L.S.A.[am]}|PEPTIDE2{[CCCCCCCCCCCCCCCC(=O)[*:2]].[gGlu]}$PEPTIDE1,PEPTIDE2,17:R3-2:R2$$$V2.0) showed an EC50 of 60 pM.

Reference: patent publication US20160347813A1, “GLUCAGON ANALOGUES” (Zealand Pharma A/S, priority 2011, published 2016)
